Here are results for six molecules from patent US8980614B2, “Staphylococcus haemolyticus prophage φSH2 endolysin is lytic for Staphylococcus aureus” (The United States of America, as represented by The …, priority 2012, dated 2015).

Series [1] has as its system MRSA strain NRS382. The series is described as follows: Control of systemic MRSA infection in a murine model. It is filed as in vivo, Balb/c mice.
In series [2] the test system is S. aureus Newman cells. The series is described as follows: Turbidity reduction assay. In kind it is cell-based, Staphylococcus aureus. The note with it: 1 μM protein; for lytic (specific) activity compared with the full length φSH2 lysin: at optimum salt concentration; for lytic activity in turbidity reduction assays (in words): different NaCl concentrations. As to the method:
The turbidity reduction assay measures a decrease in optical density of a bacterial suspension due to lysis of the target bacteria by a lytic protein. The assays were performed in a 96-well dish format essentially as described previously (Donovan et al. 2006, supra). In order to reduce the variability of the assay, frozen stocks of S. aureus Newman substrate cells were prepared in a large batch as described by Becker et al. (2009b, supra). Immediately prior to the assay, the frozen cells were thawed, washed, and resuspended in the desired assay buffer such that when 100 μl of cell suspension were added to 100 μl of lysis buffer+/−protein, the final suspension has an OD600nm of ˜1.0.
Protein constructs were assayed at a concentration of 1 μM, and the assay was performed at room temperature, measuring the OD600nm at 1 min intervals for 45 min. Buffer without enzyme served as the control. The steepest slopes of the resulting lysis curves, which correspond to the lytic activities of the proteins, were determined by a sliding window over each group of three consecutive time points for the entire 45 min period. Specific activities were expressed as ΔOD600nm/min/μM, and the “no enzyme” control value was subtracted from each experimental value.
In order to determine the effect of salt concentration on lytic activity, turbidity reduction assays were performed in 10 mM Tris buffers at pH 7.5 with varying NaCl concentrations between 0 mM and 600 mM. Accordingly, the influence of pH was determined by using a series of different buffers with pH values ranging from 3.5 to 10.0. Citrate buffers were used for pH 3.5, 4.5, 5.5, and 6.0, MOPS buffers for pH 6.5, 7.0, and 7.5, Tris buffers for pH 8.0 and 9.0, and Carbonate/bicarbonate buffer for pH 10.0. The concentration of the buffer substance in all buffers used was 20 mM, and the NaCl concentration was 200 mM. To test the effect of bivalent metal ions, assays were performed in 10 mM Tris, 200 mM NaCl, pH 7.5 supplemented with MgCl2, MnCl2, or CaCl2 at different concentrations (0.1 mM, 1 mM, 10 mM), buffer without metal ions serving as control.

Series [3] deals with S. aureus Newman cells. The series is described as follows: Zymogram with S. aureus Newman cells embedded in the gel. It is filed as cell-based. The note with it: 5 μg protein. As to the method: All purified proteins were analyzed with 15% SDS-PAGE, using a Kaleidoscope Precision Plus Protein Standard (BioRad, Hercules, Calif.). For zymograms, a 300 mL culture volume equivalent of live mid-log phase (OD600nm=0.4-0.6) cells of S. aureus strain Newman was embedded in the gel during polymerization. The protein samples were boiled in Laemmli sample buffer (BioRad) with β-mercaptoethanol, and electrophoresed with identical buffers and voltage for one hour in both the SDS-PAGE and the zymogram using a Mini-Protean TETRA gel system (BioRad). SDS gels were Coomassie stained and zymograms were washed in excess water and further incubated in deionized water for 60 min, followed by incubation in 10 mM Tris, pH 8.0 with 150 mM or 300 mM NaCl for 80 min. Areas of clearing in the turbid zymogram gel indicate a lytic protein in the gel.

Setting [4] is: 0 hours, mice infected i.p. with MRSA NRS382, treated 30 min post infection (φSH2 200 μg/mouse i.p.; Vancomycin 375 μg/mouse s.c.; Oxacillin 1250 μg/mouse s.c.).
[5] abbreviates: 4 hours, same infection and treatment.
[6] abbreviates: 8 hours, same infection and treatment.
[7] abbreviates: 12 hours, same infection and treatment.
[8] abbreviates: 16 hours, same infection and treatment.
The mark [9] stands for this setting: 20 hours, same infection and treatment.
The mark [10] stands for this setting: 24 hours, same infection and treatment.
Setting [11] is: 28 hours, same infection and treatment.
Where [12] appears, read: 32 hours, same infection and treatment.
[13] abbreviates: 36 hours, same infection and treatment.
Where [14] appears, read: 40 hours, same infection and treatment.
[15] abbreviates: 44 hours, same infection and treatment.
Setting [16] is: after incubation in deionized water for 60 min.
[17] abbreviates: water 60 min, then 10 mM Tris, 150 mM NaCl, pH 8.0 up to 80 min.

Regarding `Cc1onc(-c2ccccc2)c1C(=O)N[C@@H]1C(=O)N2[C@@H]1SC(C)(C)[C@@H]2C(=O)O` [Oxacillin], the “% Survival” value was found to be 100% in series [1] (setting [4]); 100% in series [1] (setting [5]); 100% in series [1] (setting [6]); 100% in series [1] (setting [7]); 100% in series [1] (setting [8]); 40% in series [1] (setting [9]). Besides, the “% Survival” value in series [1] (setting [10]) came out at 40%; in series [1] (setting [11]), 30%; in series [1] (setting [12]), 30%; in series [1] (setting [13]) it was 30%; in series [1] (setting [14]), 30%; in series [1] (setting [15]), 30%. For the same molecule, the survival rate entry in series [1] (after 16 to 20 hours, Oxacillin 1250 μg/mouse s.c. 30 min post infection) is given as “less than 40%”.
As for `CN[C@H](CC(C)C)C(=O)N[C@H]1C(=O)N[C@@H](CC(N)=O)C(=O)N[C@H]2C(=O)N[C@H]3C(=O)N[C@H](C(=O)N[C@H](C(=O)O)c4cc(O)cc(O)c4-c4cc3ccc4O)[C@H](O)c3ccc(c(Cl)c3)Oc3cc2cc(c3O[C@@H]2O[C@H](CO)[C@@H](O)[C@H](O)[C@H]2O[C@H]2C[C@](C)(N)[C@H](O)[C@H](C)O2)Oc2ccc(cc2Cl)[C@H]1O` [Vancomycin], the “% Survival” value in series [1] (setting [4]), in series [1] (setting [5]), in series [1] (setting [6]), in series [1] (setting [7]), in series [1] (setting [8]) and in series [1] (setting [9]) was 100% in each case. Moreover, the “% Survival” value in series [1] (setting [10]), in series [1] (setting [11]), in series [1] (setting [12]), in series [1] (setting [13]), in series [1] (setting [14]) and in series [1] (setting [15]) was 100% each time. Besides, the “% Survival” value in series [1] (48 hours (end of the experiment), same infection and treatment) was 100%.

B1: C1: CHAP plus amidase domain, lacks SH3b (1-397), SEQ ID NO:16 (protein)
chain: MKTQAEINKRLDAYRKGTVDSPYRVKVWTSYDNRFYPMEPGCIDVDKSFHAQCADLTIDYILWLTDNEFRIRGNAKDAINPKKNKLPEGWKIVLNRPSTVPRKGWIAVFTDGTYWEYGHIGMVYDGGNTSRFQILEQNWNGWANKKPSLRWDNYYGLTHFIVPPVAKENKAVSSSKQQAPKQKVKKASTKKALPKITKHITGYNMDKRGYNPKGVVLHNDAGGMNYKQYYNNLVNANYDRLARGIAHAYVDRTGIWEAIDESRIAWHVADGTRPGSGNHDFYGIEVNQSLRASDKEFLENEQAVFQFAAEKLKKWGLPANRNTVRLHNEFSQTSCPHRSMVLHTGLDPLYHSITEHARLKLKDYFIKQIRAYMDGKKPTSKVVVSKPGSASTPATRKLEHHHHHH
modifications: Bacteriophage Phi SH2
As to B1, in series [2], the “lytic (specific) activity compared with the full length φSH2 lysin” value is on record as “about half the activity” and the “lytic activity in turbidity reduction assays (in words)” value was “drastically reduced activity”. Further, the lysis in zymogram result in series [3] (setting [16]) is listed as “faint zones of lysis”. Besides, the lysis in zymogram result in series [3] (setting [17]) is reported as “considerably weaker”.

B2: D1: Isolated amidase domain (178-397), SEQ ID NO:20 (protein)
chain: MQAPKQKVKKASTKKALPKITKHITGYNMDKRGYNPKGVVLHNDAGGMNYKQYYNNLVNANYDRLARGIAHAYVDRTGIWEAIDESRIAWHVADGTRPGSGNHDFYGIEVNQSLRASDKEFLENEQAVFQFAAEKLKKWGLPANRNTVRLHNEFSQTSCPHRSMVLHTGLDPLYHSITEHARLKLKDYFIKQIRAYMDGKKPTSKVVVSKPGSASTPATRKLEHHHHHH
modifications: Bacteriophage Phi SH2
In the case of B2, the “lytic activity in turbidity reduction assays (in words)” value in series [2] was “only background levels of activity”. Also, the lysis in zymogram result in series [3] (water 60 min, then 10 mM Tris, 300 mM NaCl, pH 8.0 for 80 min) was “pronounced lytic band”.

B3: B1: Fusion of intact φSH2 CHAP and SH3b domains (1-166 + 341-493), SEQ ID NO:12 (protein)
chain: MKTQAEINKRLDAYRKGTVDSPYRVKVWTSYDNRFYPMEPGCIDVDKSFHAQCADLTIDYILWLTDNEFRIRGNAKDAINPKKNKLPEGWKIVLNRPSTVPRKGWIAVFTDGTYWEYGHIGMVYDGGNTSRFQILEQNWNGWANKKPSLRWDNYYGLTHFIVPPVALEVLHTGLDPLYHSITEHARLKLKDYFIKQIRAYMDGKKPTSKVVVSKPGSASTPATRKDANGYRENPHGTLYKEEHATFTANANIITRYVGPFTNMPQAGILKAGQTIIYDEVMKQDGYIWVGYTAYNGKRVYLPVRKWNRETDSVGKLWGVISLEHHHHHH
modifications: Bacteriophage Phi SH2
Consider B3, for which, in series [2], the “lytic activity in turbidity reduction assays (in words)” value is “completely abolished its activity”. The lysis in zymogram result in series [3] (setting [16]) is “faint zones of lysis”; in series [3] (setting [17]), “considerably weaker”.

B4: E1: Amidase plus SH3b domain (178-493), SEQ ID NO:24 (protein)
chain: MQAPKQKVKKASTKKALPKITKHITGYNMDKRGYNPKGVVLHNDAGGMNYKQYYNNLVNANYDRLARGIAHAYVDRTGIWEAIDESRIAWHVADGTRPGSGNHDFYGIEVNQSLRASDKEFLENEQAVFQFAAEKLKKWGLPANRNTVRLHNEFSQTSCPHRSMVLHTGLDPLYHSITEHARLKLKDYFIKQIRAYMDGKKPTSKVVVSKPGSASTPATRKDANGYRENPHGTLYKEEHATFTANANIITRYVGPFTNMPQAGILKAGQTIIYDEVMKQDGYIWVGYTAYNGKRVYLPVRKWNRETDSVGKLWGVISLEHHHHHH
modifications: Bacteriophage Phi SH2
Consider B4, for which the “lytic (specific) activity compared with the full length φSH2 lysin” value in series [2] is on record as “about half the activity”. In series [3] (setting [17]), the lysis in zymogram entry is recorded as “only very faint lysis”.
